In ChEMBL document CHEMBL1208765, “Structure-activity relationship of lupane-triterpene glycosides from Acanthopanax koreanum on spleen lymphocyte IL-2 and IFN-gamma” (2010):

Experiments:
Format in all cases: functional
[1] = tested on: Splenocyte; assay: Immunomodulatory effect in mouse splenocyte assessed as increase in ConA-induced IL2 release at 25 uM by lymphoproliferation test
[2] = tested on: Splenocyte; assay: Immunomodulatory effect in mouse splenocyte assessed as increase in ConA-induced IFN-gamma release at 25 uM by lymphoproliferation test
[3] = tested on: Splenocyte; assay: Immunomodulatory effect in mouse splenocyte assessed as increase in ConA-induced IFN-gamma release at 5 uM by lymphoproliferation test
[4] = tested on: Splenocyte; assay: Immunomodulatory effect in mouse splenocyte assessed as increase in ConA-induced IL2 release at 100 uM by lymphoproliferation test
[5] = tested on: Splenocyte; assay: Immunomodulatory effect in mouse splenocyte assessed as increase in ConA-induced IFN-gamma release at 100 uM by lymphoproliferation test
[6] = tested on: Splenocyte; assay: Immunomodulatory effect in mouse splenocyte assessed as increase in ConA-induced IL2 release at 5 uM by lymphoproliferation test

Compound | Activity [1] | Activity [2] | Activity [3] | Activity [4] | Activity [5] | Activity [6]
COC(OC)[C@@H](C)[C@@H]1CC[C@]2(C(=O)O[C@H]3O[C@@H](CO[C@H]4O[C@@H](CO)[C@H](O[C@H]5O[C@@H](C)[C@H](O)[C@@H](O)[C@H]5O)[C@@H](O)[C@@H]4O)[C@H](O)[C@@H](O)[C@@H]3O)CC[C@]3(C)[C@H](CC[C@@H]4[C@@]5(C)CC[C@@H](O)[C@@](C)(C(=O)O)[C@@H]5CC[C@]43C)[C@@H]12 [ACANKOREOSIDE L] | 45.06 pg/mL | 3.71 pg/mL | 3.53 pg/mL | 74.47 pg/mL | 6.07 pg/mL | 20.68 pg/mL
C=C(C)[C@@H]1CC[C@]2(C(=O)O[C@@H]3O[C@H](CO[C@@H]4O[C@H](CO)[C@@H](O[C@@H]5O[C@@H](C)[C@H](O)[C@@H](O)[C@H]5O)[C@H](O)[C@H]4O)[C@@H](O)[C@H](O)[C@H]3O)CC[C@]3(C)[C@H](CC[C@@H]4[C@@]5(C)CC[C@@H](O)[C@@](C)(C(=O)O)[C@@H]5CC[C@]43C)[C@@H]12 [ACANKOREOSIDE A] | 24.87 pg/mL | 4.62 pg/mL | 2.89 pg/mL | 29.78 pg/mL | 4.57 pg/mL | 17.04 pg/mL
CC(C)[C@]1(O)CC[C@]2(C(=O)O[C@H]3O[C@@H](CO[C@H]4O[C@@H](CO)[C@H](O[C@H]5O[C@@H](C)[C@H](O)[C@@H](O)[C@H]5O)[C@@H](O)[C@@H]4O)[C@H](O)[C@@H](O)[C@@H]3O)CC[C@]3(C)[C@H](CC[C@@H]4[C@@]5(C)CC[C@@H](O)[C@@](C)(C(=O)O)[C@@H]5CC[C@]43C)[C@H]21 [ACANKOREOSIDE O] | 11.82 pg/mL | 1.68 pg/mL | 1.81 pg/mL | 16.3 pg/mL | 2.44 pg/mL | 13.89 pg/mL
C[C@@H]1O[C@H](O[C@@H]2[C@@H](O)[C@H](O)[C@@H](OC[C@@H]3O[C@H](OC(=O)[C@]45CC[C@@H]([C@](C)(O)CO)[C@@H]4[C@H]4CC[C@@H]6[C@@]7(C)CC[C@@H](O)[C@@](C)(C(=O)O)[C@@H]7CC[C@@]6(C)[C@]4(C)CC5)[C@@H](O)[C@H](O)[C@H]3O)O[C@H]2CO)[C@H](O)[C@H](O)[C@H]1O [ACANKOREOSIDE K] | 20.24 pg/mL | 3.2 pg/mL | 2.78 pg/mL | 21.57 pg/mL | 3.66 pg/mL | 16.69 pg/mL
CC(=O)[C@@H]1CC[C@]2(C(=O)O[C@H]3O[C@@H](CO[C@H]4O[C@@H](CO)[C@H](O[C@H]5O[C@@H](C)[C@H](O)[C@@H](O)[C@H]5O)[C@@H](O)[C@@H]4O)[C@H](O)[C@@H](O)[C@@H]3O)CC[C@]3(C)[C@H](CC[C@@H]4[C@@]5(C)CC[C@@H](O)[C@@](C)(C(=O)O)[C@@H]5CC[C@]43C)[C@@H]12 [ACANKOREOSIDES J] | 16.14 pg/mL | 3.78 pg/mL | 2.75 pg/mL | 28.27 pg/mL | 4.36 pg/mL | 15.78 pg/mL
C=C(CO)[C@@H]1CC[C@]2(C(=O)O[C@H]3O[C@@H](CO[C@H]4O[C@@H](CO)[C@H](O[C@H]5O[C@@H](C)[C@H](O)[C@@H](O)[C@H]5O)[C@@H](O)[C@@H]4O)[C@H](O)[C@@H](O)[C@@H]3O)CC[C@]3(C)[C@H](CC[C@@H]4[C@@]5(C)CC[C@@H](O)[C@@](C)(C(=O)O)[C@@H]5CC[C@]43C)[C@@H]12 [ACANKOREOSIDE F] | 23.47 pg/mL | 4 pg/mL | 3.3 pg/mL | 27.57 pg/mL | 4.2 pg/mL | 16.09 pg/mL
C=C(CO)[C@@H]1CC[C@]2(C(=O)O[C@H]3O[C@@H](CO[C@H]4O[C@@H](CO)[C@H](O[C@H]5O[C@@H](C)[C@H](O)[C@@H](O)[C@H]5O)[C@@H](O)[C@@H]4O)[C@H](O)[C@@H](O)[C@@H]3O)CC[C@]3(C)[C@H](C[C@@H](O)[C@@H]4[C@@]5(C)CC[C@@H](O)[C@@](C)(C(=O)O)[C@@H]5CC[C@]43C)[C@@H]12 [ACANKOREOSIDE M] | 16.92 pg/mL | 2.45 pg/mL | 1.57 pg/mL | 17.26 pg/mL | 2.48 pg/mL | 15.27 pg/mL
C=C(C)[C@@H]1CC[C@]2(C(=O)O[C@@H]3O[C@H](CO[C@@H]4O[C@H](CO)[C@@H](O[C@H]5O[C@@H](C)[C@H](O)[C@@H](O)[C@H]5O)[C@H](O)[C@H]4O)[C@@H](O)[C@H](O)[C@H]3O)CC[C@]3(C)[C@H](C[C@@H](O)[C@@H]4[C@@]5(C)CC[C@@H](O)[C@@](C)(C=O)[C@@H]5CC[C@]43C)[C@@H]12 [ACANKOREOSIDE D] | 25.32 pg/mL | 4.62 pg/mL | 3.69 pg/mL | 41.34 pg/mL | 5.29 pg/mL | 19.26 pg/mL
C=C(CO)[C@@H]1CC[C@]2(C(=O)O[C@H]3O[C@@H](CO[C@H]4O[C@@H](CO)[C@H](O[C@H]5O[C@@H](C)[C@H](O)[C@@H](O)[C@H]5O)[C@@H](O)[C@@H]4O)[C@H](O)[C@@H](O)[C@@H]3O)CC[C@]3(C)[C@H](C[C@@H](O)[C@@H]4[C@@]5(C)CC[C@@H](O[C@@H]6O[C@H](CO)[C@@H](O)[C@H](O)[C@H]6O)C(C)(C)[C@@H]5CC[C@]43C)[C@@H]12 [ACANKOREOSIDE N] | 13.66 pg/mL | 1.55 pg/mL | 1.5 pg/mL | 19.06 pg/mL | 1.92 pg/mL | 17.11 pg/mL
C=C(C)[C@@H]1CC[C@]2(C(=O)O[C@@H]3O[C@H](CO[C@@H]4O[C@H](CO)[C@@H](O[C@H]5O[C@@H](C)[C@H](O)[C@@H](O)[C@H]5O)[C@H](O)[C@H]4O)[C@@H](O)[C@H](O)[C@H]3O)CC[C@]3(C)[C@H](C[C@@H](O)[C@@H]4[C@@]5(C)CC[C@@H](O)C(C)(C)[C@@H]5CC[C@]43C)C12 (stereo partly specified) [ACANTRIFOSIDE A] | 25.57 pg/mL | 5.23 pg/mL | 4.55 pg/mL | 50.66 pg/mL | 5.41 pg/mL | 20.07 pg/mL
C=C(CO)[C@@H]1CC[C@]2(C(=O)O[C@H]3O[C@@H](CO[C@H]4O[C@@H](CO)[C@H](O[C@H]5O[C@@H](C)[C@H](O)[C@@H](O)[C@H]5O)[C@@H](O)[C@@H]4O)[C@H](O)[C@@H](O)[C@@H]3O)CC[C@]3(C)[C@H](C[C@@H](O)[C@@H]4[C@@]5(C)CC[C@@H](O)[C@@](C)(C=O)[C@@H]5CC[C@]43C)[C@@H]12 [ACANKOREOSIDE I] | 12.91 pg/mL | 4.18 pg/mL | 1.25 pg/mL | 14.76 pg/mL | 2.59 pg/mL | 10.07 pg/mL
